Laboratory results published in ChEMBL document CHEMBL1201862, “PubChem BioAssay data set” (2004).
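Test compounds were applied to cells in 96-well plates for 48 hours at 5 doses. At the GI50, growth is halved.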 The source made the active and inactive calls. Cut-off read from the data, not from the text of the source: active = GI50 up to about 1.1 µM and inactive = higher.

Assays:
Assay in all cases: DTP human tumour cell line panel, 48 h
A498 = test system: A498
A549 = test system: A549
CCRF-CEM = test system: CCRF-CEM
EKVX = test system: EKVX
HCT-116 = test system: HCT-116
HOP-62 = test system: HOP-62
K562 = test system: K562
KM12 = test system: KM12
LOX IMVI = test system: LOX IMVI
M14 = test system: M14
MCF7 = test system: MCF7
OVCAR-3 = test system: OVCAR-3
OVCAR-8 = test system: OVCAR-8
PC-3 = test system: PC-3
SF-268 = test system: SF-268
SF-295 = test system: SF-295
SF-539 = test system: SF-539
SK-MEL-2 = test system: SK-MEL-2
SR = test system: SR
UACC-257 = test system: UACC-257

Measured: GI50

CCOC(=O)CSc1nc(N)c2c(-c3ccccc3)c3c(nc2n1)CCCC3
inactive: A498 > 100 µM | A549 > 100 µM | CCRF-CEM > 100 µM | EKVX > 100 µM | HCT-116 > 100 µM | HOP-62 > 100 µM | K562 > 100 µM | KM12 > 100 µM | LOX IMVI > 100 µM | M14 > 100 µM | MCF7 > 100 µM | OVCAR-3 > 100 µM | OVCAR-8 > 100 µM | PC-3 > 100 µM | SF-268 > 100 µM | SF-295 > 100 µM | SF-539 > 100 µM | SK-MEL-2 > 100 µM | SR > 100 µM | UACC-257 > 100 µM
